According to patent US9790180B2, “Piperidine derivatives as HDAC1/2 inhibitors” (Acetylon Pharmaceuticals, Inc., priority 2014, dated 2017):

Columns and labels:
Type in all cases: biochemical
HDAC1 = HDAC1 (Homo sapiens (Human), UniProt Q13547); test: HDAC enzyme assay, HDAC1; conditions: 24 hours pre-incubation with enzyme; read-out: IC50 (nM) HDAC1
Protocol: (§1) Compounds for testing were diluted in DMSO to 50 fold the final concentration and a ten point three fold dilution series was made. The compounds were diluted in assay buffer (50 mM HEPES, pH 7.4, 100 mM KCl, 0.001% Tween-20, 0.05% BSA, 20 μM tris(2-carboxyethyl)phosphine) to 6 fold their final concentration. The HDAC enzymes (purchased from BPS Biosciences) were diluted to 1.5 fold their final concentration in assay buffer and pre-incubated with the compounds for 24 hours prior to addition of the substrate.
(§2) The substrate tripeptide substrate 3 (synthesized in house) for each enzyme was equal to the Km as determined by a substrate titration curve. The substrates were diluted in assay buffer at 6× their final concentration with 0.3 μM sequencing grade trypsin (Sigma). The substrate/trypsin mix was added to the enzyme/compound mix, the plate was shaken for 60 seconds and placed into a Spectramax M5 microtiter plate reader. The development of fluorescence was monitored for 30 min and the linear rate of the reaction was calculated. The IC50 was determined using Graph Pad Prism by a four parameter curve fit. The IC50 values obtained for the compounds of this invention are found in Table 1. Examples of the curves are found in FIGS. 1 and 4.

HDAC2 = HDAC2 (Homo sapiens (Human), UniProt Q92769); test: HDAC enzyme assay, HDAC2; conditions: 24 hours pre-incubation with enzyme; read-out: IC50 (nM) HDAC2
Protocol: as §1, §2

HDAC3 = HDAC3 (Homo sapiens (Human), UniProt O15379); test: HDAC enzyme assay, HDAC3; conditions: 24 hours pre-incubation with enzyme; read-out: IC50 (nM) HDAC3
Protocol: as §1, §2

Sequence of HDAC1 (Q13547 whole entry): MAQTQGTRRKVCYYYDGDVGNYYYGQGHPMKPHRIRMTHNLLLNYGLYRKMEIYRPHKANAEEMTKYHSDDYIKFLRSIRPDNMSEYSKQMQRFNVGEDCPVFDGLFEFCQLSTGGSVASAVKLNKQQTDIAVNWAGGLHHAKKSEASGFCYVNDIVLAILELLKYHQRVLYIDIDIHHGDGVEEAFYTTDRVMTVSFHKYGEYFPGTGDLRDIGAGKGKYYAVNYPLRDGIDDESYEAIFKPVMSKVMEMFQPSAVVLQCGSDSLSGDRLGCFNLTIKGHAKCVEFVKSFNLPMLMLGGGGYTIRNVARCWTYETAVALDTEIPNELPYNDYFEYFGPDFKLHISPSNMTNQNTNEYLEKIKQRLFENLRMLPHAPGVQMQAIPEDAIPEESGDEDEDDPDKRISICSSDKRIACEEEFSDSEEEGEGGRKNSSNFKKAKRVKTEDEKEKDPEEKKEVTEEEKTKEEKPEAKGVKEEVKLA
Sequence of HDAC3 (O15379 whole entry): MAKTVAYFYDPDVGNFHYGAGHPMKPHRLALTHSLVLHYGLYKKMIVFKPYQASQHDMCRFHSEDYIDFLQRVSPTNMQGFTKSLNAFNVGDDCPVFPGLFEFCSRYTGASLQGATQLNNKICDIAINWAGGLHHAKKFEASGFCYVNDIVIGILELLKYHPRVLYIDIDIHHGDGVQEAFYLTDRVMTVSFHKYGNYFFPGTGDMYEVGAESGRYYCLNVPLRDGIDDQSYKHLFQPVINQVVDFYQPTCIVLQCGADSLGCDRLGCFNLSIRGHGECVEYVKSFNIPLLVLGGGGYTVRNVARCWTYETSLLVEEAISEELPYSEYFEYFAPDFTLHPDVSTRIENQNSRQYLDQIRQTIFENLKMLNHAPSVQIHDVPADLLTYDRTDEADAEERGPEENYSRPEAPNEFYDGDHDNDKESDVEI
Sequence of HDAC3 (Q9Y618 395-489 partner): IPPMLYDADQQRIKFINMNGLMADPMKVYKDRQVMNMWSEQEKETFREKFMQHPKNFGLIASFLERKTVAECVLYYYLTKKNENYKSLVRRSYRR
Sequence of HDAC2 (Q92769 whole entry): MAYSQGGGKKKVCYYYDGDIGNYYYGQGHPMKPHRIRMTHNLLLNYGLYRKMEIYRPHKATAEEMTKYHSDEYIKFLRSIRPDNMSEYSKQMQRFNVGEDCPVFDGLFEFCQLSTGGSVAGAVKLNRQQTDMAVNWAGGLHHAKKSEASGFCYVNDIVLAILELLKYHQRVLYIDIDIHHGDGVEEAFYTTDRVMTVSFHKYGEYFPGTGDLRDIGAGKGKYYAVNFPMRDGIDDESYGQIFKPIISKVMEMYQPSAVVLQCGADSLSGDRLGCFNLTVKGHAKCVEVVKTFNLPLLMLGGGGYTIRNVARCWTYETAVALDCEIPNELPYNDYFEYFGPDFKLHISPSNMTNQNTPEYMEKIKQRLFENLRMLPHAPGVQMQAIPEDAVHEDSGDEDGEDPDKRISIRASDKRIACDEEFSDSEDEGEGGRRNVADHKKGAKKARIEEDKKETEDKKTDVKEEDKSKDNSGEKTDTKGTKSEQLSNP

| SMILES | IC50 (HDAC1) [nM] | IC50 (HDAC2) [nM] | IC50 (HDAC3) [nM] |
| --- | --- | --- | --- |
| CCC1(Nc2ccc(C(=O)Nc3cc(-c4cccs4)ccc3N)cc2)CCN(C(=O)N2CCNCC2)CC1 [Compound 023] | 3.9 | 20 | 267 |
| Nc1ccc(-c2cccs2)cc1NC(=O)c1ccc(NC2CCN(C(=O)C3(O)CCCCC3)CC2)cc1 [Compound 024] | 6 | 26 | 287 |
| Nc1ccc(-c2cccs2)cc1NC(=O)c1ccc(NC2CCN(C(=O)C3(O)CCCC3)CC2)cc1 [Compound 025] | 7 | 26 | 355 |
| CN1CCC(Nc2ncc(C(=O)Nc3cc(-c4cccs4)ccc3N)cn2)(c2ccccc2)CC1 [Compound 026] | 10 | 72 | 315 |
| Nc1ccc(-c2cccs2)cc1NC(=O)c1cnc(NC2CCN(c3ccccc3)CC2)nc1 [Compound 027] | 121 | 690 | > 2000 |
| Nc1ccc(-c2cccs2)cc1NC(=O)c1ccc(NC2CCN(c3ccccc3)CC2)cc1 [Compound 028] | 74 | 443 | > 2000 |
| CC1(Nc2ccc(C(=O)Nc3cc(-c4ccncc4)ccc3N)cc2)CCN(C(=O)N2CCOCC2)CC1 [Compound 029] | – | 17 | 541 |
| CC1(Nc2ccc(C(=O)Nc3cc(-c4ccncc4)ccc3N)cc2)CCN(C(=O)N2CCCC2)CC1 [Compound 030] | 7.1 | 9.4 | 466 |
| CC1(Nc2ccc(C(=O)Nc3cc(-c4cccnc4)ccc3N)cc2)CCN(C(=O)N2CCOCC2)CC1 [Compound 031] | 91 | 71 | 264 |
| Nc1ccc(-c2ccncc2)cc1NC(=O)c1ccc(NC2CCN(C(=O)N3CCCC3)CC2)cc1 [Compound 032] | 17 | 20 | 397 |
| Nc1ccc(-c2ccccc2)cc1NC(=O)c1cnc(N(c2ccccc2)C2CCN(C(=O)Cc3c[nH]c4ccccc34)CC2)nc1 [Compound 034] | 93 | 346 | > 2000 |
| Cc1[nH]c2ccccc2c1CC(=O)N1CCC(N(c2ccccc2)c2ncc(C(=O)Nc3cc(-c4ccccc4)ccc3N)cn2)CC1 [Compound 036] | 74 | 996 | > 2000 |
| CC1(Nc2ccc(C(=O)Nc3cc(-c4ccccc4)ccc3N)cc2C2CC2)CCN(C(=O)N2CCOCC2)CC1 [Compound 037] | 432 | 377 | 1860 |
| Nc1ccc(-c2ccccc2)cc1NC(=O)c1cnc(NC2CCNc3ccccc32)nc1 (centres unmarked) [Compound 038] | 101 | 319 | > 2000 |
| Nc1ccc(-c2ccccc2)cc1NC(=O)c1cnc(NC2CCNCC2)nc1 [Compound 039] | 17 | 59 | 321 |
| CN1CCC(Nc2ncc(C(=O)Nc3cc(-c4ccccc4)ccc3N)cn2)CC1 [Compound 040] | 8 | 39 | 277 |
| CN1CCC(Nc2ncc(C(=O)Nc3cc(-c4ccccc4)ccc3N)cn2)c2ccccc21 (centres unmarked) [Compound 042] | 210 | 714 | > 2000 |
